Patent US20160045513A1, “ISOXAZOLE COMPOUND FOR THE TREATMENT OF CANCER” (Novartis AG, priority 2007, published 2016)

Tested on: BT-474 xenograft
Assay: antitumor effect in the human breast cancer model BT-474
Type: in vivo, mouse
Conditions: for T/C (%) / ΔTumor volume (mm^3): qw, i.v., 21 days treatment; for ΔTumor volume (mm^3): mean ±SEM
Procedure: The estrogen receptor positive cell line BT-474 was initially isolated from a human breast ductal carcinoma established from a solid, invasive ductal carcinoma of the breast obtained from a person (ATCC number HTB-20). The cells are grown in DMEM high glucose (4.5 g/l) supplemented with 10% FCS, […] and 1% sodium pyruvate. In preparation for cell inoculation, each mouse is subcutaneously implanted on the upper dorsal side with a 17β-Estradiol pellet (25 μg/day; 90 day release) using a trocar needle. BT-474 cells (5×10̂6) are injected in 200 μl Matrigel:HBSS (1:1 vol) (BD MatrigelTM Basement Membrane Matrix). The injection site is subcutaneously in the right flank. […] Tumor growth is monitored at regular intervals. The xenograft tumor sizes are measured manually with calipers and the tumor volume is estimated using the formula: (W×L×H×π/6), where width (W), height (H) and length (L) are the three largest diameters. Results are presented as mean ±SEM. Tumor data are analyzed by ANOVA with post hoc Dunnet's test for comparison of treatment versus control group. As a measure of efficacy the % T/C value is calculated at the end of the experiment according to: (Δtumor volumetreated/Δtumor volumecontrol)*100 where Δtumor volumes represent the mean tumor volume on the evaluation day minus the mean tumor volume at the start of the experiment. The antitumor effect of AUY922 is evaluated in the BT-474 xenograft model. In this study, the treatment period is 21 days. Each group consists of eight tumor bearing animals. At the end of the study, the tumor sizes in the treatment groups are compared to those of the vehicle treated groups and the effect is expressed as % T/C.

CCNC(=O)c1noc(-c2cc(C(C)C)c(O)cc2O)c1-c1ccc(CN2CCOCC2)cc1 [AUY922, 5-(2,4-Dihydroxy-5-isopropyl-phenyl)-4-(4-morpholin-4-ylmethyl-phenyl)-isoxazole-3-carboxylic acid ethylamide]
T/C (%) (8.3 mg/kg): 43% | ΔTumor volume (mm^3) (8.3 mg/kg): 229 ± 73 mm^3 | T/C (%) (17 mg/kg): 9% | ΔTumor volume (mm^3) (17 mg/kg, *P < 0.05): 46 ± 27* mm^3 | T/C (%) (25 mg/kg): 3% | ΔTumor volume (mm^3) (25 mg/kg, *P < 0.05): 15 ± 23* mm^3 | reduction of tumor sizes versus vehicle (once per week at 17-25 mg/kg): Statistically significant reduction of tumor sizes
